What was measured:
Histamine H3 receptor [1] = molecular target: T1, Histamine H3 receptor (Homo sapiens, UniProt Q9Y5N1); assay: Effective concentration required against human histamine H3 receptor was determined by the inhibition of the cAMP stimulated beta-galactosidase transcription in SK-N-MC cells; format: cell-based
Histamine H3 receptor [2] = molecular target: T1, Histamine H3 receptor; assay: Intrinsic activity against human histamine H3 receptor
Histamine H3 receptor [3] = molecular target: T1, Histamine H3 receptor; assay: Binding affinity towards human histamine H3 receptor was determined by [3H]Na-methylhistamine binding to SK-N-MC cell membranes
Histamine H4 receptor = Histamine H4 receptor (Homo sapiens, UniProt Q9H3N8); assay: Binding affinity towards human histamine H4 receptor was determined by [3H]Na-methylhistamine binding to SK-N-MC cell membranes
Chain of Histamine H4 receptor (Q9H3N8 whole entry): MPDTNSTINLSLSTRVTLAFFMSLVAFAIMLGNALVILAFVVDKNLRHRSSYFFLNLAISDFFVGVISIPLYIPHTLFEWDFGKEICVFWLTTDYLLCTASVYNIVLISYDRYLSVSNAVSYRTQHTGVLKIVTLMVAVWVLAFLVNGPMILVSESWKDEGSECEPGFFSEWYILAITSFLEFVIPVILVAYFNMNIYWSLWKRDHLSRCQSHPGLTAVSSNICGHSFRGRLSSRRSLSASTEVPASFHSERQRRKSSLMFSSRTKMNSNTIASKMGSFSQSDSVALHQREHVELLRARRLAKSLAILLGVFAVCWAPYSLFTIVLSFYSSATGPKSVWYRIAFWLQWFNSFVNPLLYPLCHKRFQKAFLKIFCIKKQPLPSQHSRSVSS

T1 sequence (Q9Y5N1 whole entry): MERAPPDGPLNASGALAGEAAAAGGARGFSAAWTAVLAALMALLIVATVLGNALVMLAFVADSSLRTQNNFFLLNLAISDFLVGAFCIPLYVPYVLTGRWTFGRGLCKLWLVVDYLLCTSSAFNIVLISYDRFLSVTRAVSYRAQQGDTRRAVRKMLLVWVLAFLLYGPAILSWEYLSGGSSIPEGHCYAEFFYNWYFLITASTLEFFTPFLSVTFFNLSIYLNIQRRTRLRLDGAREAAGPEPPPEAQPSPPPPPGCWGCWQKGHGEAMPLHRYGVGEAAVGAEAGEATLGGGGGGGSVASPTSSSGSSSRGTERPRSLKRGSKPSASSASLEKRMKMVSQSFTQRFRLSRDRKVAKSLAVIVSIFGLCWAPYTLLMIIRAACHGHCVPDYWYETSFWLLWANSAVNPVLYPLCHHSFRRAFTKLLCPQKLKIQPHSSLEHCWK

| Compound | EC50 (Histamine H3 receptor [1]) | Intrinsic activity (Histamine H3 receptor [2]) | Ki (Histamine H3 receptor [3]) | Ki (Histamine H4 receptor) |
| --- | --- | --- | --- | --- |
| CN1CCC(C(=O)c2cc3cc(Cl)ccc3[nH]2)CC1 | 1 µM | -0.5 | 3.16 µM | 0.2 µM |
| CN1CCN(C(=O)c2nc3cc(Cl)ccc3[nH]2)CC1 | 3.16 µM | – | 3.98 µM | 0.0794 µM |
| CN1CCN(NC(=O)c2cc3cc(Cl)ccc3[nH]2)CC1 | – | – | – | 25.1 µM |
| CN(C)CCN(C)C(=O)c1cc2cc(Cl)ccc2[nH]1 | – | – | – | 25.1 µM |
| CN1CCN(NC(=O)c2nc3cc(Cl)ccc3[nH]2)CC1 | – | – | – | > 100 µM |
| CN1CCN(C(=O)c2cc3cc(Cl)ccc3[nH]2)CC1 [JNJ-7777120] | 1 µM | -0.7 | 2 µM | – |
| CN1CCN(C(=O)c2cc3cc(I)ccc3[nH]2)CC1 | 3.16 µM | -0.8 | 2.51 µM | 0.0631 µM |
| CN1CCC(C(O)c2cc3cc(Cl)ccc3[nH]2)CC1 (stereo not drawn) | 1 µM | -0.5 | 1.58 µM | 5.01 µM |
| O=C(c1cc2cc(Cl)ccc2[nH]1)N1CCOCC1 | – | – | – | > 100 µM |
| CN1CCN(C(=O)Nc2nc3cc(Cl)ccc3[nH]2)CC1 | – | – | – | 20 µM |
| CC(=O)Nc1nc2cc(Cl)ccc2[nH]1 | – | – | – | > 100 µM |
| CN1CCN(C(=O)c2cc3cc(Br)ccc3[nH]2)CC1 | 1.58 µM | -0.7 | 3.16 µM | 0.0316 µM |
| CN(C)CCCNC(=O)c1cc2cc(Cl)ccc2[nH]1 | – | – | – | > 100 µM |
| CN1CCN(C(=O)c2nc3ccc(Cl)cc3[nH]2)CC1 | – | -1 | – | – |
| CN(C)CCNC(=O)c1cc2cc(Cl)ccc2[nH]1 | – | 0 | 5.01 µM | 3.16 µM |
| CN(C)CCNC(=O)c1nc2cc(Cl)ccc2[nH]1 | 3.16 µM | -0.5 | 25.1 µM | 1 µM |
| CN(C)CCN(C)C(=O)c1nc2cc(Cl)ccc2[nH]1 | – | – | – | 25.1 µM |
| CN(C)c1cccc(-c2nc3cc(Cl)ccc3[nH]2)c1 | – | – | – | > 100 µM |
| O=C(c1cc2cc(Cl)ccc2[nH]1)N1CCCCC1 | 3.16 µM | -0.6 | 6.31 µM | 7.94 µM |

From ChEMBL document CHEMBL1137049 (Bioorg Med Chem Lett, 2004)
